{"source": "patent US20230028658A1", "about": "“EXPANDED DOSAGE REGIMENS FOR INTEGRIN INHIBITORS” (Pliant Therapeutics, Inc., priority 2021, published 2023)", "key": {"[1]": {"test_system": "Type I Collagen gene Col1a1 expression", "assay": "Precision cut lung slices of mice under acute bleomycin exposure, Col1a1 expression", "format": "cell-based, Mice (C57BL/6)", "details": "acute bleomycin PCLS, 3 days culture, normalized to DMSO; FIG. 5A", "experimental": "Mice (C57BL/6) were administered 3 U/kg of bleomycin (Teva Pharmaceuticals; North Wales, Pa.) on day 0 via oropharyngeal aspiration while under anesthesia. On day 14, precision cut lung slices were obtained. Following euthanization, 2% low gelling temp agarose was injected into the mouse lungs via the trachea. […] The lobes were then subjected to precision slicing to obtain samples for culture using a microtome (Compresstome VF-300-0Z, Precisionary; Greenville, N.C.). Individual slices were distributed in a multiwell culture plate and cultured for 3 days under control (DMSO) and test compound conditions."}, "[2]": {"test_system": "lung Col1a1 expression", "assay": "Precision cut lung slices of mice under chronic bleomycin exposure, Col1a1 expression (Example B9)", "format": "cell-based, Mice (C57BL/6)", "details": "chronic bleomycin PCLS, 7 days culture, normalized to DMSO; FIG. 5B", "experimental": "(§1) Mice (C57BL/6) were administered 3 U/kg of bleomycin (Teva Pharmaceuticals; North Wales, Pa.) on Day 0 and 1 U/kg of bleomycin on days 14, 28, 42 and 56 via oropharyngeal aspiration while under anesthesia. At day 70, 14 days after the final bleomycin insult, precision cut lung slices were obtained. Following euthanization, 2% low gelling temp agarose was injected into the mouse lungs via the trachea. […] The lobes were then subjected to precision slicing to obtain samples for culture using a microtome (Compresstome VF-300-0Z, Precisionary; Greenville, N.C.). Individual slices were distributed in a multiwell culture plate and cultured for 7 days under control (DMSO) and test compound conditions. The viability of the slices over the course of culturing was confirmed by WST-1 assay of mitochondrial activity.\nDuring the culture period, slices in the control group were treated with DMSO and slices in the test group were treated with a DMSO solution of one of: the selective antibody αvβ6 inhibitor 3G9; the αvβ1-selective small molecule inhibitor; a combination of the selective antibody αvβ6 inhibitor 3G9 and the αvβ1-selective small molecule inhibitor; compound 5; and the small molecule ALK5 inhibitor. The selective αvβ1 and αvβ6 integrin inhibitors were analyzed at ≥their respective IC90 concentrations for inhibition of TGF-beta activation. […]"}, "[3]": {"test_system": "lung Col1a1 expression", "assay": "Precision cut lung slices, chronic bleomycin, comparison with nintedanib and pirfenidone (Example B10)", "format": "cell-based, Mice (C57BL/6)", "details": "chronic bleomycin PCLS, 7 days culture, vs DMSO vehicle; FIG. 6A", "experimental": "as §1, with “following” for “after”\nDuring the culture period, slices in the control group were treated with DMSO and slices in the test group were treated with a DMSO solution of one of: compound 5; nintedanib; pirfenidone; a combination of nintedanib and compound 5; a combination of pirfenidone and compound 5; or the small molecule ALK5 inhibitor. Compound 5 was […] effective to equal or exceed its respective IC50 values at αvβ6 and αvβ1. […] Nintendanib and pirfenidone were analyzed at concentrations 10× their reported therapeutic concentrations."}, "[4]": {"test_system": "lung Col1a1 expression", "assay": "Precision cut lung slices from human IPF explants, 3 days, Col1a1 expression", "format": "cell-based", "details": "human IPF PCLS, 3G9 ≥400 ng/mL, compound 5 179 nM, ALK5 inhibitor 1 μM, FIG. 6C", "text": "Explanted lung tissue was obtained from human IPF subjects and inflated with agarose as described in the preceding examples. Biopsy cores were obtained from the agarose-inflated lung tissue. The biopsy cores were subjected to precision slicing to obtain several hundred μm thick. Individual slices were distributed in a multiwell culture plate and cultured for […] under control (DMSO) and test compound conditions. The viability of the slices over the course of culturing was confirmed by WST-1 assay of mitochondrial activity."}, "[5]": {"test_system": "Type I Collagen gene Col1a1", "assay": "Col1a1 expression in lung slices versus DMSO control slices (FIG. 5A, 5B, 6A, 6C)", "format": "cell-based", "details": "FIG. 6A; compared to the DMSO vehicle control slices"}, "[6]": {"test_system": "COL1A1 expression", "assay": "PCLS from IPF lung tissue, seven days, COL1A1 expression", "format": "cell-based, human", "details": "PCLS from 5-7 IPF lung tissue samples, Compound 5 200 nM, nintedanib 75 nM, pirfenidone 50 μm, FIG. 6D", "experimental": "PCLS from 5-7 idopathic pulmonary fibrosis (IPF) lung tissue samples were cultured for seven days with one of: DMSO; Compound 5 at 200 nM; nintedanib at 75 nM; pirfenidone at 50 μm; a combination of Compound 5 at 200 nM and nintedanib at 75 nM; a combination of Compound 5 at 200 nM and pirfenidone at 50 μm; or an Alk5 inhibitor at 1 μm. […] FIG. 6D is a bar graph showing relative expression of COL1A1 in precision cut lung slices (PCLS) from idopathic pulmonary fibrosis (IPF) lung tissue upon exposure to Compound 5, clinical standard of care compounds nintedanib (Nin) and pirfenidone (Pirf), and an ALK5 inhibitor, all versus DMSO control.\nPCLS from a single IPF lung tissue sample were cultured for seven days with Compound 5 at concentrations of 200 pM, 2 nM, 60 nM, 200 nM, and 1 μM, along with 0.1% DMSO control and an Alk5 inhibitor at 1 μM. […] COL1A1 expression is also graphed for the PCLS in the presence of 0.1% DMSO control, and an Alk5 inhibitor at 1 μM."}, "[7]": {"target": "recombinant human integrin αvβ6 (Homo sapiens, UniProt P06756+P18564)", "sequence (P06756 31-992 limits assumed)": "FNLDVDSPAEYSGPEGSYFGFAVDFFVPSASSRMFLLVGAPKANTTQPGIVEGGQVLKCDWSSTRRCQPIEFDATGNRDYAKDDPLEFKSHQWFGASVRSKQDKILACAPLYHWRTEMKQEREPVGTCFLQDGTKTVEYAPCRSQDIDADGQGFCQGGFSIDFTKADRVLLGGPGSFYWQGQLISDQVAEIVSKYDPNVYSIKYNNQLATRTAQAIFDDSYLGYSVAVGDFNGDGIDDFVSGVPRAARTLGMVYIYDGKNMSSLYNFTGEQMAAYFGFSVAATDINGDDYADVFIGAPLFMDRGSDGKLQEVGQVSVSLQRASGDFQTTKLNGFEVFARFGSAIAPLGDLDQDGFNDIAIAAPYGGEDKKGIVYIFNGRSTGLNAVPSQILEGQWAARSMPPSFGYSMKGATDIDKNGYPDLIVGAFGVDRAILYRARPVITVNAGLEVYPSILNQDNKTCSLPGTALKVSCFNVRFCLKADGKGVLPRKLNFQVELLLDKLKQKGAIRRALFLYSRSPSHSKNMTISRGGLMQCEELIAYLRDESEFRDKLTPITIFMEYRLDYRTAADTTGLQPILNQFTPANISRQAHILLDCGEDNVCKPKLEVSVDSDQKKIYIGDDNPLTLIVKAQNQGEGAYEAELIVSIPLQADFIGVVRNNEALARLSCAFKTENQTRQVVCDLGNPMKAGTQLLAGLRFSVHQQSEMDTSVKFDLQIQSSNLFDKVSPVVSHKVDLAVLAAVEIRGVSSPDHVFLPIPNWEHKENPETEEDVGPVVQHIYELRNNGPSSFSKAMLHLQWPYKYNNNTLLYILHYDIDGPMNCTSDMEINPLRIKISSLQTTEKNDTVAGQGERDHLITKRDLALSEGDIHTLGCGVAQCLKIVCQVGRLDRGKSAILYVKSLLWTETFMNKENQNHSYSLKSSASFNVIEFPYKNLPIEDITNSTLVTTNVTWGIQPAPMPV", "sequence (P18564 22-707 limits assumed)": "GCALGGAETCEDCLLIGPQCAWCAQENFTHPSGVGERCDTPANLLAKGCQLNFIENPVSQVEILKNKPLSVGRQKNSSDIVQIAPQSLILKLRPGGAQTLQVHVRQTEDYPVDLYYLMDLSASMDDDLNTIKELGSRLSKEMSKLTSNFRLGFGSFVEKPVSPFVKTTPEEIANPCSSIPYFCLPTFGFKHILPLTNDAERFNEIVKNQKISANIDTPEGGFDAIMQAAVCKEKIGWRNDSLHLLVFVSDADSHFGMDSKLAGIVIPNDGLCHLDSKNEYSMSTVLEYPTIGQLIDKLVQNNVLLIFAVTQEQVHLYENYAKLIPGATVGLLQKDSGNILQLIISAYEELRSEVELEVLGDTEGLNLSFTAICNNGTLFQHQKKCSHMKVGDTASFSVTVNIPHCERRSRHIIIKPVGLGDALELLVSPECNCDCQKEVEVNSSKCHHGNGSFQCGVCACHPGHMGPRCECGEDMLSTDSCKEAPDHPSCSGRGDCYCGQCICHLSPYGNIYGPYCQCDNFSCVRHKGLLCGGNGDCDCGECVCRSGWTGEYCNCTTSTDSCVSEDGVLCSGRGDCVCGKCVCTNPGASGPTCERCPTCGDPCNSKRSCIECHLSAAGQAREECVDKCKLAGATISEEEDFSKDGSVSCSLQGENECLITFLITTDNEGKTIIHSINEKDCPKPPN", "assay": "Solid phase integrin αvβ6 binding assay", "details": "read-out: αvβ6 Inhibition IC50 (nM) - range", "experimental": "Microplates were coated with recombinant human integrin αvβ6 (2 μg/mL) in PBS (100 μL/well 25° C., overnight). The coating solution was removed, washed with wash buffer (0.05% Tween 20; 0.5 mM MnCl2; in 1×TBS). The plate was blocked with 200 μL/well of Block Buffer (1% BSA; 5% sucrose; 0.5 mM MnCl2; in 1×TBS) at 37° C. for 2 h. Dilutions of testing compounds and recombinant TGFβ1 LAP (0.67 μg/mL) in binding buffer (0.05% BSA; 2.5% sucrose; 0.5 mM MnCl2; in 1×TBS) were added. The plate was incubated for 2 hours at 25° C., washed, and incubated for 1 hour with Biotin-Anti-hLAP. Bound antibody was detected by peroxidase-conjugated streptavidin. The IC50 values for testing compounds were calculated by a four-parameter logistic regression.\nThe compounds tested were compound samples prepared according to procedures described in the Synthetic Examples section, with the stereochemical purity as indicated in the Examples."}}}
{"smiles": "CC(C)(C)c1cc(Br)cc(C(CC(=O)O)NC(=O)CNC(=O)c2cc(O)cc(NC3=NCC(O)CN3)c2)c1", "note": "[second pan-αv small molecule inhibitor, (3S)-N-[3-hydroxy-5-[(1,4,5,6-tetrahydro-5-hydroxy-2-pyrimidinyl)amino]benzoyl]glycyl-3-[3-bromo-5-(1,1-dimethylethyl)phenyl]-3-alanine]", "values": [{"measurement": "Type I Collagen gene Col1a1 expression", "setting": "[1]", "result": "reduced Type I Collagen gene Col1a1 expression"}]}
{"smiles": "Cc1cccc(-c2n[nH]cc2-c2ccc(F)c(-c3cnn(CCO)c3)c2)n1", "note": "[small molecule ALK5 inhibitor, 4-[2-Fluoro-5-[3-(6-methyl-2-pyridinyl)-1H-pyrazol-4-yl]phenyl]-1H-pyrazole-1-ethanol, reference compound]", "values": [{"measurement": "Type I Collagen gene Col1a1 expression", "setting": "[1]", "result": "greatest decrease"}, {"measurement": "lung Col1a1 expression", "setting": "[2]", "result": "greatest decrease"}, {"measurement": "lung slice Col1a1 expression", "setting": "[3]", "result": "substantial, statistically significant (p<0.0001 vs vehicle) decrease"}, {"measurement": "lung Col1a1 expression", "setting": "[4]", "result": "substantial, statistically significant"}]}
{"smiles": "COC(=O)c1ccc2c(c1)NC(=O)/C2=C(\\Nc1ccc(N(C)C(=O)CN2CCN(C)CC2)cc1)c1ccccc1", "note": "[nintedanib]", "values": [{"measurement": "lung Col1a1 expression", "setting": "[5]", "result": "slight increase"}, {"measurement": "lung slice Col1a1 expression", "setting": "[3]", "result": "slight increase"}, {"measurement": "reduced COL1A1 expression", "setting": "[6]", "result": "did not significantly reduce"}]}
{"smiles": "Cc1ccc(=O)n(-c2ccccc2)c1", "note": "[pirfenidone]", "values": [{"measurement": "lung Col1a1 expression", "setting": "[5]", "result": "slight increase"}, {"measurement": "lung slice Col1a1 expression", "setting": "[3]", "result": "slight increase"}, {"measurement": "reduced COL1A1 expression", "setting": "[6]", "result": "did not significantly reduce"}]}
{"smiles": "O=C(O)[C@H](CCN(CCO)CCCCc1ccc2c(n1)NCCC2)Nc1ncnc2ccccc12", "note": "[Compound 75, (S)-4-((2-hydroxyethyl) (4-(5,6,7,8-tetrahydro-1,8-naphthyridin-2-yl)butyl)amino)-2-(quinazolin-4-ylamino) butanoic acid]", "values": [{"measurement": "IC50", "setting": "[7]", "result": "< 50", "unit": "nM"}]}
{"smiles": "CO[C@H](C)CN(CCCCc1ccc2c(n1)NCCC2)CC[C@H](Nc1ncc(C#N)cn1)C(=O)O", "note": "[Compound 68, (S)-2-((5-cyanopyrimidin-2-yl)amino)-4-(((R)-2-methoxypropyl) (4-(5,6,7,8-tetrahydro-1,8-naphthyridin-2-yl)butyl)amino) butanoic acid]", "values": [{"measurement": "IC50", "setting": "[7]", "result": "< 50", "unit": "nM"}]}
